Data reported in patent US20080274892A1, “Novel Haloalkylsulfonanilide Derivative, Herbicide, and Method of Use Thereof” (priority 2005, published 2008).

Experiments:
[1] = test system: bulrush; assay: Test Example 1: herbicidal efficacy on rice paddy weeds pre-emergence; assay type: in vivo, Scirpus juncoides; conditions: 21 days
[2] = test system: false pimpernel; assay: as above; assay type: in vivo, Lindernia pyxidaria; conditions: 21 days
[3] = test system: barnyard glass; assay: Test Example 2: herbicidal efficacy on rice paddy weeds post-emergence; assay type: in vivo, Echinochloa crus-galli; conditions: post-emergence, one leaf stage, 21 days after treatment
In short: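 Efficacy on paddy weeds was scored on a 0 to 4 growth-inhibition scale: 4 for 90%-100%, 3 for 70%-89%, 2 for 40%-69%, 1 for 1%-39% and 0 for 0%. Barnyard glass was grown in clay loam in 75 cm^2 pots under 5 cm of water in a hot house. It was compared with untreated pots 21 days after treatment.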

[4] = test system: bulrush; assay: as above; assay type: in vivo, Scirpus juncoides; conditions: post-emergence, one leaf stage, 21 days after treatment
[5] = test system: false pimpernel; assay: as above; assay type: in vivo, Lindernia pyxidaria; conditions: post-emergence, one leaf stage, 21 days after treatment
[6] = test system: paddy rice plant (cultivar: Nihonbare); assay: Test Example 3: phytotoxicity test for transplanted paddy rice plant; assay type: in vivo; conditions: transplanted rice, 21 days after treatment
In short: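 Clay loam soil was placed in a 75 cm^2 plastic pot and flooded to a water depth of 5 cm. Two Nihonbare paddy rice plants at the two-leaf stage were transplanted 1 cm deep and grown in a hot house. After treatment, pots stayed in the hot house for 21 days, and phytotoxicity was then graded against an untreated control.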

[7] = test system: bulrush; assay: Test Example 4: low dosage test for rice paddy weeds; assay type: in vivo, Scirpus juncoides; conditions: 300 g/ha as an active ingredient; plants treated at the one leaf stage; 21 days after treatment; vs untreated control
In short: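 Compound applied as a formulation at 300 g/ha to one-leaf bulrush grown in flooded clay loam (5 cm water) in a hot house. After 21 days, growth inhibition versus untreated plants rated on a 0–4 scale, with 4 meaning 90–100%.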

[8] = test system: transplanted paddy rice plant and Bulrush; assay: Test Example 5: selectivity between transplanted paddy rice plant and weeds; assay type: in vivo; conditions: (highest dosage with no phytotoxicity to paddy rice)/(lowest dosage with effective level 4 on Bulrush); rice 3000-100 g/ha, Bulrush 300-10 g/ha; 21 days
In short: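 Scoring ran 21 days after treatment in a hothouse on a 0–4 scale (4 = 90–100%, 3 = 70–89%, 2 = 40–69%, 1 = 1–39%, 0 = none) relative to untreated plants. Post-emergence bulrush received 10, 30, 100 and 300 g/ha active ingredient. Transplanted rice received 100, 300, 1000 and 3000 g/ha to assess crop injury.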

[9] = dosage 1000 g/ha, treated 5 days after transplantation

Structure (SMILES) | Bulrush pre (herbicidal efficacy grade) ([1]; dosage 1000 g/ha) | False pimpernel pre (herbicidal efficacy grade) ([2]; dosage 1000 g/ha) | Burnyard grass post (herbicidal efficacy grade) ([3]; dosage 1000 g/ha) | Bulrush post (herbicidal efficacy grade) ([4]; dosage 1000 g/ha) | False pimpernel post (herbicidal efficacy grade) ([5]; dosage 1000 g/ha) | Phytotoxicity to paddy rice [6, 9] | Herbicide effect to Bulrush [7] | Selective Index [8] | melting point [°C] | Bulrush pre (herbicidal efficacy grade) ([1]; dosage 300 g/ha) | False pimpernel pre (herbicidal efficacy grade) ([2]; dosage 300 g/ha) | Bulrush post (herbicidal efficacy grade) ([4]; dosage 300 g/ha) | False pimpernel post (herbicidal efficacy grade) ([5]; dosage 300 g/ha) | Phytotoxicity to paddy rice ([6]; dosage 300 g/ha) | Burnyard grass post (herbicidal efficacy grade) ([3]; dosage 300 g/ha)
CC1(C)CN(Cc2ccccc2NS(=O)(=O)C(F)(F)F)C(=O)S1 [Compound No. 1-184, 5,5-dimethyl-3-[2-(trifluoromethanesulfonylamino)benzyl]thiazolidin-2-one] | 4 (90%-100% of herbicidal efficacy or phytotoxicity) | 4 (90%-100% of herbicidal efficacy or phytotoxicity) | 4 (90%-100% of herbicidal efficacy or phytotoxicity) | 4 (90%-100% of herbicidal efficacy or phytotoxicity) | 4 (90%-100% of herbicidal efficacy or phytotoxicity) | 1 (1%-39% of herbicidal efficacy or phytotoxicity) | 4 (90%-100% of herbicidal efficacy or phytotoxicity) | 10 | 115 to 117.5 | – | – | – | – | – | –
CCC1CN(Cc2ccccc2N(C(=O)OCC(C)C)S(=O)(=O)C(F)(F)F)C(=O)O1 (centres unmarked) [Compound No. 1-24, 5-ethyl-3-{2-[N-(isobutoxycarbonyl)-N-(trifluoromethanesulfonyl)amino]benzyl}-2-oxazolidinone] | 4 (90%-100% of herbicidal efficacy or phytotoxicity) | 4 (90%-100% of herbicidal efficacy or phytotoxicity) | 4 (90%-100% of herbicidal efficacy or phytotoxicity) | 4 (90%-100% of herbicidal efficacy or phytotoxicity) | 4 (90%-100% of herbicidal efficacy or phytotoxicity) | 0 (0% of herbicidal efficacy or phytotoxicity) | 4 (90%-100% of herbicidal efficacy or phytotoxicity) | 33 | 85 to 87 | – | – | – | – | – | –
CC1(C)COC(=O)N1Cc1ccccc1NS(=O)(=O)C(F)(F)F [Compound No. 1-15, 4,4-dimethyl-3-[2-(trifluoromethanesulfonylamino)benzyl]-2-oxazolidinone] | 4 (90%-100% of herbicidal efficacy or phytotoxicity) | 4 (90%-100% of herbicidal efficacy or phytotoxicity) | 4 (90%-100% of herbicidal efficacy or phytotoxicity) | 4 (90%-100% of herbicidal efficacy or phytotoxicity) | 4 (90%-100% of herbicidal efficacy or phytotoxicity) | 1 (1%-39% of herbicidal efficacy or phytotoxicity) | 4 (90%-100% of herbicidal efficacy or phytotoxicity) | 10 | 134.9 | – | – | – | – | – | –
CCC1COC(=O)N1Cc1ccccc1N(C(=O)OCC(C)C)S(=O)(=O)C(F)(F)F (centres unmarked) [Compound No. 1-6, 4-ethyl-3-{2-[N-(isobutoxycarbonyl)-N-(trifluoromethanesulfonyl)amino]benzyl}-2-oxazolidinone] | 4 (90%-100% of herbicidal efficacy or phytotoxicity) | 4 (90%-100% of herbicidal efficacy or phytotoxicity) | 4 (90%-100% of herbicidal efficacy or phytotoxicity) | 4 (90%-100% of herbicidal efficacy or phytotoxicity) | 4 (90%-100% of herbicidal efficacy or phytotoxicity) | 1 (1%-39% of herbicidal efficacy or phytotoxicity) | 3 (70%-89% of herbicidal efficacy or phytotoxicity) | 3 | 69.3 to 71.7 | – | – | – | – | – | –
CCC1COC(=O)N1Cc1ccccc1NS(=O)(=O)C(F)(F)F (centres unmarked) [Compound No. 1-5, 4-ethyl-3-[2-(trifluoromethanesulfonylamino)benzyl]-2-oxazolidinone] | 4 (90%-100% of herbicidal efficacy or phytotoxicity) | 4 (90%-100% of herbicidal efficacy or phytotoxicity) | 4 (90%-100% of herbicidal efficacy or phytotoxicity) | 4 (90%-100% of herbicidal efficacy or phytotoxicity) | 4 (90%-100% of herbicidal efficacy or phytotoxicity) | 2 (40%-69% of herbicidal efficacy or phytotoxicity) | 4 (90%-100% of herbicidal efficacy or phytotoxicity) | ≧10 | 81.4 to 83.6 | – | – | – | – | – | –
CC1(C)OC(=O)N(Cc2ccccc2NS(=O)(=O)C(F)(F)F)C1O (centres unmarked) [Compound No. 1-194, 4-hydroxy-5,5-dimethyl-3-[2-(trifluoromethanesulfonylamino)benzyl]oxazolidin-2-one] | – | – | – | – | – | – | – | – | 88 to 92 | – | – | – | – | – | –
Cc1cn(Cc2ccccc2N(C(=O)OCC(C)C)S(=O)(=O)C(F)(F)F)c(=O)o1 [Compound No. 1-208, 3-{2-[N-(isobutoxycarbonyl)-N-(trifluoromethanesulfonyl)amino]benzyl}-5-methyl-4-oxazolin-2-one] | – | – | – | – | – | – | – | – | 60.3 to 68.6 | 4 (90%-100% of herbicidal efficacy or phytotoxicity) | 4 (90%-100% of herbicidal efficacy or phytotoxicity) | 4 (90%-100% of herbicidal efficacy or phytotoxicity) | 1 (1%-39% of herbicidal efficacy or phytotoxicity) | 0 (0% of herbicidal efficacy or phytotoxicity) | –
CC(C)COC(=O)N(c1ccccc1CN1C(=O)OC2CCCCC21)S(=O)(=O)C(F)(F)F (centres unmarked) [1-48] | 4 (90%-100% of herbicidal efficacy or phytotoxicity) | 4 (90%-100% of herbicidal efficacy or phytotoxicity) | 4 (90%-100% of herbicidal efficacy or phytotoxicity) | 4 (90%-100% of herbicidal efficacy or phytotoxicity) | 4 (90%-100% of herbicidal efficacy or phytotoxicity) | 1 (1%-39% of herbicidal efficacy or phytotoxicity) | 3 (70%-89% of herbicidal efficacy or phytotoxicity) | 10 | – | – | – | – | – | – | –
CCOC(=O)N(c1ccccc1CN1CC(C)(CC(C)C)OC1=O)S(=O)(=O)C(F)(F)F (racemic) [1-125] | 4 (90%-100% of herbicidal efficacy or phytotoxicity) | 4 (90%-100% of herbicidal efficacy or phytotoxicity) | 4 (90%-100% of herbicidal efficacy or phytotoxicity) | 4 (90%-100% of herbicidal efficacy or phytotoxicity) | 4 (90%-100% of herbicidal efficacy or phytotoxicity) | 1 (1%-39% of herbicidal efficacy or phytotoxicity) | 4 (90%-100% of herbicidal efficacy or phytotoxicity) | 10 | – | – | – | – | – | – | –
C=CCOC(=O)N(c1ccccc1CN1CC(C)(C)OC1=O)S(=O)(=O)C(F)(F)F [1-82] | 4 (90%-100% of herbicidal efficacy or phytotoxicity) | 4 (90%-100% of herbicidal efficacy or phytotoxicity) | 4 (90%-100% of herbicidal efficacy or phytotoxicity) | 4 (90%-100% of herbicidal efficacy or phytotoxicity) | 4 (90%-100% of herbicidal efficacy or phytotoxicity) | 2 (40%-69% of herbicidal efficacy or phytotoxicity) | 4 (90%-100% of herbicidal efficacy or phytotoxicity) | ≧30 | – | – | – | – | – | – | –
Cc1cn(Cc2ccccc2NS(=O)(=O)C(F)(F)F)c(=O)o1 [Compound No. 1-207, 5-methyl-3-[2-(trifluoromethanesulfonylamino)benzyl]-4-oxazolin-2-one] | – | – | – | – | – | – | – | – | 120.2 to 121.2 | 4 (90%-100% of herbicidal efficacy or phytotoxicity) | 4 (90%-100% of herbicidal efficacy or phytotoxicity) | 4 (90%-100% of herbicidal efficacy or phytotoxicity) | 1 (1%-39% of herbicidal efficacy or phytotoxicity) | 1 (1%-39% of herbicidal efficacy or phytotoxicity) | 0 (0% of herbicidal efficacy or phytotoxicity)
